For the assay, the target named is α7 nAChR (Rattus norvegicus, UniProt Q05941). Put plainly: [3H]-MLA competition binding assay in rat brain membranes. From the text:
Materials and Methods for identifying binding constants: […]

From US6479510B2, “Quinuclidine-substituted aryl compounds for treatment of disease” (Pharmacia & Upjohn Company, priority 2000, dated 2002) come the findings set out here.

Where a name gives a salt, the structure may show the parent alone. Read-outs that look alike come from different tables or passages of the source.

Chain of α7 nAChR (Q05941 23-502): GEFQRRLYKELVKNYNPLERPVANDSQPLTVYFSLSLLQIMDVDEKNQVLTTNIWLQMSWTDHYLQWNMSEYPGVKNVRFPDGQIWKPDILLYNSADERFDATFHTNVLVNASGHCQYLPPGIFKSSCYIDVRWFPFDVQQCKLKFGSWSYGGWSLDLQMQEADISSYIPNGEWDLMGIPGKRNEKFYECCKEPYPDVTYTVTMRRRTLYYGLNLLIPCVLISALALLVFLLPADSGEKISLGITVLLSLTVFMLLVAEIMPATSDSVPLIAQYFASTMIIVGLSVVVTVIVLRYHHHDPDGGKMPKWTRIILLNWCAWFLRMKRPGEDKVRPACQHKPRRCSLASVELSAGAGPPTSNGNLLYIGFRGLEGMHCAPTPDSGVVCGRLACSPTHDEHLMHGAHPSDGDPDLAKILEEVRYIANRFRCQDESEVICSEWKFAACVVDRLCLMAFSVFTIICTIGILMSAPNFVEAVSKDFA

The molecule `O=C(N[C@H]1CN2CCC1CC2)c1ccc(Oc2ccc(O)cc2)cc1` [Example 1, N-[(3R)-1-azabicyclo[2.2.2]oct-3-yl]-4-(4-hydroxyphenoxy)benzamide] displayed a Ki of 278 nM. As to `CC(=O)Nc1ccc(Oc2ccc(C(=O)N[C@H]3CN4CCC3CC4)cc2)cc1` [Example 2, N-[(3R)-1-azabicyclo[2.2.2]oct-3-yl]-4-(4-acetamidophenoxy)benzamide], the Ki came to 270 nM.

`O=C(N[C@H]1CN2CCC1CC2)c1ccc(Oc2ccccc2)cc1` [Example 3, N-[(3R)-1-azabicyclo[2.2.2]oct-3-yl]-4-phenoxybenzamide] came in with a Ki of 847 nM.

For `O=C(N[C@H]1CN2CCC1CC2)c1ccc(C(=O)c2ccccc2)cc1` [Example 7, N-[(3R)-1-azabicyclo[2.2.2]oct-3-yl]-4-benzoylbenzamide], the inhibitory constant (Ki) is 1580 nM. Regarding `O=C(N[C@H]1CN2CCC1CC2)c1ccc(Oc2ccc(F)cc2)cc1` [Example 8, N-[(3R)-1-azabicyclo[2.2.2]oct-3-yl]-4-(4-fluorophenoxy)benzamide], the Ki was found to be 910 nM. Still for that read-out and setting: then `O=C(N[C@H]1CN2CCC1CC2)c1ccc(Oc2cccc(Cl)c2)cc1` [Example 12, N-[(3R)-1-azabicyclo[2.2.2]oct-3-yl]-4-(3-chlorophenoxy)-benzamide], with 1590 nM. The molecule `O=C(N[C@H]1CN2CCC1CC2)c1ccc(Oc2ccc(Cl)cc2)cc1` [Example 13, N-[(3R)-1-azabicyclo[2.2.2]oct-3-yl]-4-(4-chlorophenoxy)-benzamide] gave a Ki of 1240 nM. Consider `COc1cccc(Oc2ccc(C(=O)N[C@H]3CN4CCC3CC4)cc2)c1` [Example 15, N-[(3R)-1-azabicyclo[2.2.2]oct-3-yl]-4-(3-methoxyphenoxy)-benzamide], for which the Ki (read-out: Ki) is 835 nM. Molecule `COc1ccc(Oc2ccc(C(=O)N[C@H]3CN4CCC3CC4)cc2)cc1` [Example 16, N-[(3R)-1-azabicyclo[2.2.2]oct-3-yl]-4-(4-methoxyphenoxy)-benzamide] gave an inhibition constant (Ki) of 414 nM. Same read-out and setting: to `O=C(N[C@H]1CN2CCC1CC2)c1ccc(Sc2cccc(Cl)c2)cc1` [Example 17, N-[(3R)-1-azabicyclo[2.2.2]oct-3-yl]-4-(3-chlorophenylsulfanyl)benzamide] belongs 170 nM. As to `CC1C(NC(=O)c2ccc(Oc3ccccc3)cc2)C2CCN1CC2` (centres unmarked) [Example 23, N-(2-methyl-1-azabicyclo[2.2.2]oct-3-yl)-4-phenoxybenzamide Fumarate], the Ki (read-out: Ki) was in the range of 1660 to 1980 nM.

Usually Ki stands for the equilibrium dissociation constant of an inhibitor or competing ligand from its target.
